DC50 data for 12 molecules are collected here from patent US12599672B2, “KRAS proteolysis targeting chimeras” (PAQ Therapeutics Inc., priority 2023, dated 2026).

Holding throughout (type): cell-based
One assay deals with T1, KRAS G12D (Homo sapiens, UniProt P01116, G12D).
T1 construct: AsPc-1-KRAS (G12D)-HiBit-KI cell (Pharmaron); host or cells: AsPc-1-KRAS (G12D)-HiBit-KI cells (HiBiT knock-in at the endogenous KRAS locus)
As to the kind of experiment: KRAS G12D HiBit assay. The conditions noted are these: AsPc-1-KRAS (G12D)-HiBit-KI cell, compound treatment for 24 hours, absolute DC50. Summed up: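 Cells were treated for 24 h with compounds in a 3-fold, 10-point dilution series from a 0.3 mM DMSO stock, then equilibrated 15 min at room temperature. KRAS G12D HiBiT levels were read by luminescence after lytic Nano-Glo HiBiT reagent with LgBiT; inhibition calculated relative to 0.1% DMSO high control.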

The next assay addresses T2, KRAS G12V (Homo sapiens, UniProt P01116, G12V).
T2 construct: SW620-KRAS (G12V)-HiBit-KI cell (Pharmaron); host or cells: SW620-KRAS (G12V)-HiBit-KI cells (HiBiT knock-in at the endogenous KRAS locus)
Briefly: KRAS G12V HiBit assay. The settings on record: SW620-KRAS (G12V)-HiBit-KI cells, compound treatment for 24 hours. An outline of the steps:
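HiBiT-tagged KRAS G12V cells treated 24 h with compound in a 3-fold, 10-point series (0.3 mM DMSO stock); lytic HiBiT reagent with LgBiT added after 15 min room-temperature equilibration. Degradation calculated against 0.1% DMSO high control.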

For the next assay, the target named is T3, KRAS (Homo sapiens, UniProt P01116).
T3 construct: endogenous in cells; host or cells: KE39 (KRAS amplified) cells
As to the kind of experiment: KRASamp MSD assay. The conditions noted are these: KE39 (KRAS amplified) cells, treated with test compounds for 24 hr, MSD readout of KRAS degradation. An outline of the steps: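 KRAS-amplified KE39 cells treated with compound for 24 hr, then lysed in RIPA buffer with protease/phosphatase inhibitors. KRAS protein measured by MSD sandwich immunoassay against a recombinant WT KRAS standard curve; DC50 derived from curve fitting of degradation.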

Setting [1] is: numeric bounds given in place of class symbols.

T1 sequence (P01116 1-188 isoform P01116-2 G12D): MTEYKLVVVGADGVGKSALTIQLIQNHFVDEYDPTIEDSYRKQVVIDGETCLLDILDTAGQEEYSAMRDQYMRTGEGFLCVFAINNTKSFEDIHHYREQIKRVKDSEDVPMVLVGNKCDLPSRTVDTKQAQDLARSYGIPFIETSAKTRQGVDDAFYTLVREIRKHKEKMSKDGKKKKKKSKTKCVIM
T2 sequence (P01116 1-188 isoform P01116-2 G12V): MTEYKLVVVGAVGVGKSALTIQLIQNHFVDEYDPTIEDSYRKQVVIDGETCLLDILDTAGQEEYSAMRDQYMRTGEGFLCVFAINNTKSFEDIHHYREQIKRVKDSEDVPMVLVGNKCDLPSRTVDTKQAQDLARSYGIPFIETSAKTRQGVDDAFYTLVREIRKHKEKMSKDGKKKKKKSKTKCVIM
T3 sequence (P01116 1-188 isoform P01116-2): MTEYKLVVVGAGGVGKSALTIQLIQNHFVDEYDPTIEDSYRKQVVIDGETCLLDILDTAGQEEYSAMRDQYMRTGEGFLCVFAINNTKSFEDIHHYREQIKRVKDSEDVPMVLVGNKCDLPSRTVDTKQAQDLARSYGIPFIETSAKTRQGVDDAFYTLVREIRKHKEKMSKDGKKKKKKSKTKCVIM

For the molecule `Cn1c(=O)n(C2CCC(=O)NC2=O)c2ccc(N3CCC(CN4CCN(C(=O)OC[C@@H]5CC[C@]6(COc7nc(N8CCC[C@@](C)(O)C8)c8cnc(-c9cc(O)cc%10ccc(F)cc9%10)c(F)c8n7)CCCN56)CC4)CC3)cc21` (stereo partly drawn) [Compound 445, ((3S,7aS)-7a-(((8-fluoro-7-(7-fluoro-3-hydroxynaphthalen-1-yl)-4-((R)-3-hydroxy-3-methylpiperidin-1-yl)pyrido[4,3-d]pyrimidin-2-yl)oxy)methyl)hexahydro-1H-pyrrolizin-3-yl)methyl 4-((1-(1-(2,6-dioxopiperidin-3-yl)-3-methyl-2-oxo-2,3-dihydro-1H-benzo[d]imidazol-5-yl)piperidin-4-yl)methyl)piperazine-1-carboxylate], the DC50 at KRAS G12D (class symbols) is less than 100 nM; at KRAS G12V (class symbols), less than 10 nM; at KRAS, less than 1 nM.

For `CCc1c(F)ccc2cc(O)cc(-c3ncc4c(N5CCC[C@@](C)(O)C5)nc(OC[C@@]56CCCN5[C@H](COC(=O)N5CC7(CCN(CC8CCN(c9ccc%10c(c9)n(C)c(=O)n%10C9CCC(=O)NC9=O)CC8)CC7)C5)CC6)nc4c3F)c12` (stereo partly drawn) [Compound 452, ((3S,7aS)-7a-(((7-(8-ethyl-7-fluoro-3-hydroxynaphthalen-1-yl)-8-fluoro-4-((R)-3-hydroxy-3-methylpiperidin-1-yl)pyrido[4,3-d]pyrimidin-2-yl)oxy)methyl)hexahydro-1H-pyrrolizin-3-yl)methyl 7-((1-(1-(2,6-dioxopiperidin-3-yl)-3-methyl-2-oxo-2,3-dihydro-1H-benzo[d]imidazol-5-yl)piperidin-4-yl)methyl)-2,7-diazaspiro[3.5]nonane-2-carboxylate], the results for the DC50 at KRAS G12D (class symbols), on KRAS G12V (class symbols) and on KRAS were less than 100 nM, less than 10 nM and less than 1 nM, respectively.

With `C#Cc1c(F)ccc2cc(O)cc(-c3ncc4c(N5CCC[C@@](C)(O)C5)nc(OC[C@]56CCCN5[C@H](COC(=O)N5CCC(CN7CCC(c8ccc9c(c8)n(C)c(=O)n9C8CCC(=O)NC8=O)CC7)CC5)CC6)nc4c3F)c12` (stereo partly drawn) [Compound 134], the DC50 on KRAS G12D (class symbols) is less than 100 nM; at KRAS G12V (class symbols) it was less than 10 nM; on KRAS, less than 1 nM.

For the molecule `C#Cc1c(F)ccc2cc(O)cc(-c3ncc4c(N5CCC[C@@](C)(O)C5)nc(OC[C@@]56CCCN5[C@H](COC(=O)N5CCC7(CC5)CCN7C5CCN(c7ccc8c(c7)n(C)c(=O)n8C7CCC(=O)NC7=O)CC5)CC6)nc4c3F)c12` (stereo partly drawn) [Compound 320, ((3S,7aS)-7a-(((7-(8-ethynyl-7-fluoro-3-hydroxynaphthalen-1-yl)-8-fluoro-4-((R)-3-hydroxy-3-methylpiperidin-1-yl)pyrido[4,3-d]pyrimidin-2-yl)oxy)methyl)hexahydro-1H-pyrrolizin-3-yl)methyl 1-(1-(1-(2,6-dioxopiperidin-3-yl)-3-methyl-2-oxo-2,3-dihydro-1H-benzo[d]imidazol-5-yl)piperidin-4-yl)-1,7-diazaspiro[3.5]nonane-7-carboxylate], the figures for the DC50 at KRAS G12D (setting [1]), on KRAS G12V (class symbols) and on KRAS were more than 100 nM, more than 100 nM and not below 10 nM, respectively.

`CCc1c(F)ccc2cc(O)cc(-c3ncc4c(N5CCC[C@@](C)(O)C5)nc(OC[C@@]56CCCN5[C@@H](COC(=O)N5CCC(CN7CCC(c8ccc9c(c8)n(C)c(=O)n9C8CCC(=O)NC8=O)CC7)CC5)CC6)nc4c3F)c12` (stereo partly drawn) [Compound 389, ((3R,7aS)-7a-(((7-(8-ethyl-7-fluoro-3-hydroxynaphthalen-1-yl)-8-fluoro-4-((R)-3-hydroxy-3-methylpiperidin-1-yl)pyrido[4,3-d]pyrimidin-2-yl)oxy)methyl)hexahydro-1H-pyrrolizin-3-yl)methyl 4-((4-(1-(2,6-dioxopiperidin-3-yl)-3-methyl-2-oxo-2,3-dihydro-1H-benzo[d]imidazol-5-yl)piperidin-1-yl)methyl)piperidine-1-carboxylate]: the results for the DC50 at KRAS G12D (class symbols), on KRAS G12V (numeric bounds) and at KRAS were less than 100 nM, more than 70.5 nM and 1 to 10 nM, respectively.

For the molecule `CCc1c(F)ccc2cc(O)cc(-c3ncc4c(N5CCC[C@@](C)(O)C5)nc(OC[C@@]56CCCN5[C@H](COC(=O)N5CC(CN7CCC(c8ccc9c(c8)n(C)c(=O)n9C8CCC(=O)NC8=O)CC7)C5)CC6)nc4c3F)c12` (stereo partly drawn) [Compound 394, ((3S,7aS)-7a-(((7-(8-ethyl-7-fluoro-3-hydroxynaphthalen-1-yl)-8-fluoro-4-((R)-3-hydroxy-3-methylpiperidin-1-yl)pyrido[4,3-d]pyrimidin-2-yl)oxy)methyl)hexahydro-1H-pyrrolizin-3-yl)methyl 3-((4-(1-(2,6-dioxopiperidin-3-yl)-3-methyl-2-oxo-2,3-dihydro-1H-benzo[d]imidazol-5-yl)piperidin-1-yl)methyl)azetidine-1-carboxylate], the values for the DC50 at KRAS G12D (setting [1]), at KRAS G12V (class symbols) and at KRAS were more than 100 nM, less than 10 nM and 1 to 10 nM, respectively.

As to `CCc1c(F)ccc2cc(O)cc(-c3ncc4c(N5CCC[C@@](C)(O)C5)nc(OC[C@@]56CCCN5[C@H](COC(=O)N5CCC7(CCC(N8CCC(c9ccc%10c(c9)n(C)c(=O)n%10C9CCC(=O)NC9=O)CC8)C7)CC5)CC6)nc4c3F)c12` (stereo partly drawn) [Compound 455, ((3S,7aS)-7a-(((7-(8-ethyl-7-fluoro-3-hydroxynaphthalen-1-yl)-8-fluoro-4-((R)-3-hydroxy-3-methylpiperidin-1-yl)pyrido[4,3-d]pyrimidin-2-yl)oxy)methyl)hexahydro-1H-pyrrolizin-3-yl)methyl 2-(4-(1-(2,6-dioxopiperidin-3-yl)-3-methyl-2-oxo-2,3-dihydro-1H-benzo[d]imidazol-5-yl)piperidin-1-yl)-8-azaspiro[4.5]decane-8-carboxylate], the figures for the DC50 at KRAS G12D (class symbols), at KRAS G12V (class symbols) and on KRAS were less than 100 nM, less than 10 nM and less than 1 nM, respectively.

As for `CCc1c(F)ccc2cc(O)cc(-c3ncc4c(N5CCC[C@@](C)(O)C5)nc(OC[C@@]56CCCN5[C@@H](COC(=O)N5CCC(CN7CCC(c8cc9c(cc8F)n(C8CCC(=O)NC8=O)c(=O)n9C)CC7)CC5)CC6)nc4c3F)c12` (stereo partly drawn) [Compound 426, ((3R,7aS)-7a-(((7-(8-ethyl-7-fluoro-3-hydroxynaphthalen-1-yl)-8-fluoro-4-((R)-3-hydroxy-3-methylpiperidin-1-yl)pyrido[4,3-d]pyrimidin-2-yl)oxy)methyl)hexahydro-1H-pyrrolizin-3-yl)methyl 4-((4-(1-(2,6-dioxopiperidin-3-yl)-6-fluoro-3-methyl-2-oxo-2,3-dihydro-1H-benzo[d]imidazol-5-yl)piperidin-1-yl)methyl)piperidine-1-carboxylate], the DC50 was less than 100 nM at KRAS G12D (class symbols), 10 to 100 nM on KRAS G12V (class symbols) and less than 1 nM at KRAS.

As to `C#Cc1c(F)ccc2cc(O)cc(-c3ncc4c(N5CCC[C@@](C)(O)C5)nc(OC[C@@]56CCCN5[C@@H](COC(=O)N5CCC(CN7CCC(c8ccc9c(c8)n(C)c(=O)n9C8CCC(=O)NC8=O)CC7)CC5)CC6)nc4c3F)c12` (stereo partly drawn) [Compound 140], the DC50 at KRAS G12D (class symbols) is less than 100 nM; at KRAS G12V (numeric bounds), more than 38.9 nM; on KRAS, less than 1 nM.

Consider `CCc1c(F)ccc2cc(O)cc(-c3ncc4c(N5CCC[C@@H](N)C5)nc(OC[C@@]56CCCN5[C@H](COC(=O)N5CCC7(CC5)CC(N5CCC(c8ccc9c(c8)n(C)c(=O)n9C8CCC(=O)NC8=O)CC5)C7)CC6)nc4c3F)c12` (stereo partly drawn) [Compound 476, ((3S,7aS)-7a-(((4-((R)-3-aminopiperidin-1-yl)-7-(8-ethyl-7-fluoro-3-hydroxynaphthalen-1-yl)-8-fluoropyrido[4,3-d]pyrimidin-2-yl)oxy)methyl)hexahydro-1H-pyrrolizin-3-yl)methyl 2-(4-(1-(2,6-dioxopiperidin-3-yl)-3-methyl-2-oxo-2,3-dihydro-1H-benzo[d]imidazol-5-yl)piperidin-1-yl)-7-azaspiro[3.5]nonane-7-carboxylate], for which the DC50 at KRAS G12D (class symbols) was less than 100 nM; on KRAS G12V (class symbols), less than 10 nM; at KRAS, 1 to 10 nM.

With `CCc1c(F)ccc2cc(O)cc(-c3ncc4c(N5CCC[C@@](C)(O)C5)nc(OC[C@@]56CCCN5[C@H](COC(=O)NC5CCN(CC7CCN(c8ccc9c(c8)n(C)c(=O)n9C8CCC(=O)NC8=O)CC7)CC5)CC6)nc4c3F)c12` (stereo partly drawn) [Compound 428, ((3S,7aS)-7a-(((7-(8-ethyl-7-fluoro-3-hydroxynaphthalen-1-yl)-8-fluoro-4-((R)-3-hydroxy-3-methylpiperidin-1-yl)pyrido[4,3-d]pyrimidin-2-yl)oxy)methyl)hexahydro-1H-pyrrolizin-3-yl)methyl (1-((1-(1-(2,6-dioxopiperidin-3-yl)-3-methyl-2-oxo-2,3-dihydro-1H-benzo[d]imidazol-5-yl)piperidin-4-yl)methyl)piperidin-4-yl)carbamate], the DC50 at KRAS G12D (class symbols) was less than 100 nM; at KRAS G12V (class symbols), 10 to 100 nM; on KRAS, 1 to 10 nM.

Consider `C#Cc1c(F)ccc2cc(O)cc(-c3ncc4c(N5CCC[C@@](C)(O)C5)nc(OCC5(CN6CCC7(CC6)CCN(c6cccc8c6n(C)c(=O)n8C6CCC(=O)NC6=O)CC7)CC5)nc4c3F)c12` (stereo partly drawn) [Compound 67], for which the values for the DC50 on KRAS G12D (class symbols), on KRAS G12V (class symbols) and at KRAS were less than 100 nM, less than 10 nM and 1 to 10 nM, respectively.
